The target of assay [1] is T1, proMMP9(20-445;ΔFnII) (SEQ ID NO:6) (Homo sapiens, UniProt P14780, DEL216-390).
T1 construct: start methionine (N); made in house; host or cells: E. coli BL21(DE3) RIL
T1 sequence (P14780 with tags, fused parts or gaps DEL216-390): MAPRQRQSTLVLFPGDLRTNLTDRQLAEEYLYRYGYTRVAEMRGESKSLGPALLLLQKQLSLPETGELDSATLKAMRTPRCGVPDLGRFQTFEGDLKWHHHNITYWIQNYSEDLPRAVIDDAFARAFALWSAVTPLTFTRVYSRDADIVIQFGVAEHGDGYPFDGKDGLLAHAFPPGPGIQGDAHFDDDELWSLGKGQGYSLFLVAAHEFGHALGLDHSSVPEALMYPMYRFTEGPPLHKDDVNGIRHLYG
Put plainly: ThermoFluor binding assay with proMMP9(20-445;ΔFnII). The procedure: (§1) The ThermoFluor® (TF) assay is a 384-well plate-based binding assay that measures thermal stability of proteins (Biomol Screen 2001, 6, 429-40; Biochemistry 2005, 44, 5258-66). The experiments were carried out using instruments available from Johnson & Johnson Pharmaceutical Research & Development, LLC. TF dye used in all experiments was […] (1,8-ANS) (Invitrogen: A-47).
(§2) Compounds were arranged in a pre-dispensed plate (Greiner Bio-one: 781280), wherein compounds were serially diluted in 100% DMSO across 11 columns within a series. Columns 12 and 24 were used as DMSO reference and contained no compound. For multiple compound concentration-response experiments, the compound aliquots ([…]) were robotically predispensed directly into black 384-well polypropylene PCR microplates (Abgene: TF-0384/k) using a Cartesian Hummingbird liquid handler (DigiLab, Holliston, Mass.). Following compound dispense, protein and dye solutions were added to achieve the final assay volume of 3 μL. The assay solutions were overlayed with 1 μL of silicone oil (Fluka, type DC 200: 85411) to prevent evaporation.
(§3) Assay plates were robotically loaded onto a thermostatically controlled PCR-type thermal block and then heated from 40 to 90° C. at a ramp-rate of 1° C./min for all experiments. Fluorescence was measured by continuous illumination with UV light (Hamamatsu LC6) supplied via fiber optics and filtered through a band-pass filter (380-400 nm; >60D cutoff). Fluorescence emission of the entire 384-well plate was detected by measuring light intensity using a CCD camera (Sensys, Roper Scientific) filtered to detect 500±25 nm, resulting in simultaneous and independent readings of all 384 wells. A single image with 20-sec exposure time was collected at each temperature, and the sum of the pixel intensity in a given area of the assay plate was recorded vs temperature and fit to standard equations to yield the Tm (J Biomol Screen 2001, 6, 429-40).
(§4) Thermodynamic parameters necessary for fitting compound binding for each proMMP were estimated by differential scanning calorimetry (DSC) and from ThermoFluor® data. The heat capacity of unfolding for each protein was estimated from the molecular weight and from ThermoFluor® dosing data.
ThermoFluor® with proMMP9(20-445;ΔFnII (SEQ ID NO:6)
The protein sample preparations included a desalting buffer exchange step via a PD-10 gravity column (GE Healthcare). The desalting buffer exchange was performed prior to diluting the protein to the final assay concentration of 2.8 μM proMMP9(20-445;ΔFnII) (SEQ ID NO:6). The concentration of proMMP9(20-445;ΔFnII) (SEQ ID NO:6) was determined spectrophotometrically based on a calculated extinction coefficient of ε280=39880 M^−1 cm^−1, a calculated molecular weight of 28.2 kDa, and calculated pI of 5.5. ThermoFluor® reference conditions were define as follows: 80 μg/mL (2.8 μM) proMMP9(20-445;ΔFnII) (SEQ ID NO:6), 50 μM 1,8-ANS, pH 7.0 Buffer (50 mM HEPES pH 7.0, 100 mM NaCl, 0.001% Tween-20, 2.5 mM MgCl2, 300 μM CaCl2). The thermodynamic parameters for proMMP9(20-445;ΔFnII) (SEQ ID NO:6) are as follows: Tm (° C.)=72 (+/−0.1), ΔUH(Tm) (cal mol^−1)=160000(+/−5000), ΔUS(Tm) (cal mol^−1 K^−1)=434, ΔUCp (cal mol^−1 K^−1)=2400.
Background: DSF heats the sample and reads unfolding from a dye or from intrinsic fluorescence.

The target of assay [2] is T2, proMMP13(1-268) (SEQ ID NO:7) (Homo sapiens, UniProt P45452).
T2 construct: 6×-histidine tag (C); made in house; host or cells: HEK293 (transient, secreted)
The assay can be described thus: ThermoFluor binding assay with proMMP13(1-268). The procedure: as §1, §2, §3, §4
ThermoFluor® with proMMP13(1-268) (SEQ ID NO: 7)
The proMMP13(1-268) (SEQ ID NO:7) protein sample preparations included a desalting buffer exchange step via a PD-10 gravity column (GE Healthcare). The desalting buffer exchange was performed prior to diluting the protein to the final assay concentration of 3.5 μM. The concentration of proMMP13(1-268) (SEQ ID NO:7) was estimated spectrophotometrically based on a calculated extinction coefficient of ε280=37000 M^−1 cm^−1, a calculated molecular weight of 30.8 kDa, and calculated pI of 5.33. ThermoFluor® reference conditions were defined as follows: 100 μg/mL proMMP13(1-268) (SEQ ID NO:7), 25 μM 1,8-ANS, pH 7.0 Buffer (50 mM HEPES pH 7.0, 100 mM NaCl, 0.001% Tween-20, 2.5 mM MgCl2, 300 μM CaCl2). The thermodynamic parameters for proMMP13(1-268) (SEQ ID NO:7) are as follows: Tm (° C.)=67 (+/−0.1), ΔUH(Tm) (cal mol^−1)=107000(+/−5000), ΔUS(Tm) (cal mol^−1 K^−1)=318, ΔUCp (cal mol^−1 K^−1)=2600.

The target in assay [3] is T3, full-length proMMP9(1-707) (SEQ ID NO:1), activation by catalytic MMP3 (Homo sapiens, UniProt P14780, R574P).
T3 construct: made in house; host or cells: HEK293 (transient, secreted)
The assay can be described thus: proMMP9/MMP3 P126 Activation Assay. Type of assay: biochemical. On the procedure:
proMMP9/MMP3 P126 Activation Assay
The reaction volume was 50 μL. […] Reactivity of residual MMP3 towards P-126 substrate was minimal under these conditions.

Assay [4] deals with T4, proMMP9(67-444;ΔFnII) (SEQ ID NO:5) (Homo sapiens, UniProt P14780, DEL216-390).
T4 construct: start methionine (N); made in house; host or cells: E. coli BL21(DE3) RIL
T4 sequence (P14780 with tags, fused parts or gaps DEL216-390): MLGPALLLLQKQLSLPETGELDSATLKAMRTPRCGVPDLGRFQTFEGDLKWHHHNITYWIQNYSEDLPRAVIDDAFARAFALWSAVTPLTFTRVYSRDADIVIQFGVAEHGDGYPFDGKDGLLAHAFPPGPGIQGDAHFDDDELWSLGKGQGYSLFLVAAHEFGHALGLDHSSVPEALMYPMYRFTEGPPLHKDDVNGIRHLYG
Put plainly: ThermoFluor binding assay with proMMP9(67-444;ΔFnII). On the procedure: as §1, §2, §3, §4
ThermoFluor® with proMMP9(67-444;ΔFnII (SEQ ID NO:5)
The protein sample preparations had to include a desalting buffer exchange step via a PD-10 gravity column (GE Healthcare). The desalting buffer exchange was performed prior to diluting the protein to the final assay concentration of 3.5 μM proMMP9(67-444;ΔFnII) (SEQ ID NO:5). The concentration of proMMP9(67-444;ΔFnII) (SEQ ID NO:5) was determined spectrophotometrically based on a calculated extinction coefficient of ε280=33900 M^−1 cm^−1, a calculated molecular weight of 22.6 kDa, and calculated pI of 5.20. ThermoFluor® reference conditions were defined as follows: 80 μg/mL (3.5 μM) proMMP9(67-444;ΔFnII) (SEQ ID NO:5), 50 μM 1,8-ANS, pH 7.0 Buffer (50 mM HEPES pH 7.0, 100 mM NaCl, 0.001% Tween-20, 2.5 mM MgCl2, 300 μM CaCl2). The thermodynamic parameters for proMMP9(67-444;ΔFnII) (SEQ ID NO:5) are as follows: Tm (° C.)=63 (+/−0.1), ΔUH(Tm) (cal mol^−1)=105000(+/−5000), ΔUS(Tm) (cal mol^−1 K^−1)=450, ΔuCp (cal mol^−1 K^−1)=2000.

We go through 13 compounds from patent US20120129872A1, “FUSED HETEROARYL INHIBITORS OF PRO-MATRIX METALLOPROTEINASE ACTIVATION” (priority 2010, published 2012).

Where a name gives a salt, the structure may show the parent alone.

T3 sequence (P14780 20-707 R574P): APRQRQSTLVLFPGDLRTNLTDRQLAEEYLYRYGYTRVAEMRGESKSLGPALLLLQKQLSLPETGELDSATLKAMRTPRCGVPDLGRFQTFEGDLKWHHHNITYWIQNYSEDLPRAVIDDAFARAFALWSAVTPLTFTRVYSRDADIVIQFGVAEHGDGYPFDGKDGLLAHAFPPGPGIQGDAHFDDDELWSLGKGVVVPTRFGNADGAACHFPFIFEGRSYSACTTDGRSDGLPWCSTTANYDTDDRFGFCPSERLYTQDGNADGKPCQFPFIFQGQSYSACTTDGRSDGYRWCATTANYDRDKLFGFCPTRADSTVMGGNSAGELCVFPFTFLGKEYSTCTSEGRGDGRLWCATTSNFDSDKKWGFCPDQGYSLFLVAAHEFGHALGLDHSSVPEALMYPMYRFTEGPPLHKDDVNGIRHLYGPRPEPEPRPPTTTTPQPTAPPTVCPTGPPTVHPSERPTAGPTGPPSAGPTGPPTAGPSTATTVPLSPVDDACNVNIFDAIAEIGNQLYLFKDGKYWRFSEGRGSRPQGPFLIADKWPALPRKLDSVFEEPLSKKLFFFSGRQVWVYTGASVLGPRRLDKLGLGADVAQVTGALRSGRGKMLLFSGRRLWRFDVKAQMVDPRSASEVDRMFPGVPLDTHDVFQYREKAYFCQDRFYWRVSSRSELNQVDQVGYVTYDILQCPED

With `CCOc1ccc(S(N)(=O)=O)cc1Nc1nc(-n2c(C)nc3ccccc32)cs1` [Example 5, 4-Ethoxy-3-[4-(2-methyl-benzoimidazol-1-yl)-thiazol-2-ylamino]-benzenesulfonamide], the Kd in assay [1] is 9700 nM; in assay [2] it was 4800 nM; in assay [4] it was 16000 nM. In assay [3], this compound returned an IC50 of 13800 nM.

On to `Cc1nc2ccc(Cl)cn2c1-c1csc(Nc2cc(C(N)=O)ccc2OC(C)C)n1` [Example 6, 3-[4-(6-Chloro-2-methyl-imidazo[1,2-a]pyridin-3-yl)-thiazol-2-ylamino]-4-isopropoxy-benzamide], for which the results for the Kd in assay [1], in assay [2] and in assay [4] were 490 nM, 1100 nM and 17000 nM, respectively. The same compound showed an IC50 in assay [3] of 640 nM.

In the case of `Cc1c(-c2csc(Nc3cc(C(N)=O)ccc3OC(C)C)n2)sc2ccccc12` [Example 3, 4-Isopropoxy-3-[4-(3-methyl-benzo[b]thiophen-2-yl)-thiazol-2-ylamino]-benzamide•HBr], the Kd in assay [1] is 1200 nM; in assay [2] it was 1900 nM; in assay [4] it was 750 nM. This compound also had a half-maximal inhibitory concentration (IC50) in assay [3] of 2500 nM.

As for `CC(C)Cc1ccc(C(N)=O)cc1Nc1nc(-c2ccc3c(c2)ncn3C)cs1` [Example 2, 4-Isobutyl-3-[4-(1-methyl-1H-benzoimidazol-5-yl)-thiazol-2-ylamino]-benzamide•TFA], the dissociation constant (Kd) was found to be 690 nM in assay [1] and 6000 nM in assay [4]. The compound further had an IC50 in assay [3] of around 3000 nM.

On to `CC(C)Oc1ccc(S(N)(=O)=O)cc1Nc1nc(-c2ccc3sccc3c2)cs1` [Example 20, 3-(4-Benzo[b]thiophen-5-yl-thiazol-2-ylamino)-4-isopropoxy-benzenesulfonamide•TFA], for which the Kd in assay [1] came to 450 nM; in assay [4] it was 1200 nM. Also, the concentration for half-maximal inhibition (IC50) in assay [3] turned out to be 3600 nM.

In the case of `Cc1nc2cc(-c3csc(Nc4cc(S(N)(=O)=O)ccc4OC(C)C)n3)ccc2n1C` [Example 23, 3-[4-(1,2-Dimethyl-1H-benzoimidazol-5-yl)-thiazol-2-ylamino]-4-isopropoxy-benzenesulfonamide•TFA], the Kd is 360 nM in assay [1] and 1100 nM in assay [4]. Also, inhibition in assay [3] was half-maximal at 180 nM (IC50).

Take `Cc1ccn2c(-c3csc(Nc4cc(C(N)=O)ccc4OC(C)C)n3)c(C)nc2c1` [Example 7, 3-[4-(2,7-Dimethyl-imidazo[1,2-a]pyridin-3-yl)-thiazol-2-ylamino]-4-isopropoxy-benzamide]: the Kd in assay [1] was determined as 1500 nM; in assay [2], 1200 nM; in assay [4], 9600 nM. This compound also registered a half-inhibitory concentration (IC50) in assay [3] of 1800 nM.

On to `COc1ccc(C(N)=O)cc1Nc1nc(-c2ccc3c(c2)ncn3C)cs1` [Example 10, 4-Methoxy-3-[4-(1-methyl-1H-benzoimidazol-5-yl)-thiazol-2-ylamino]-benzamide], for which the values for the Kd in assay [1] and in assay [4] were 320 nM and 990 nM, respectively. Moreover, in assay [3], the IC50 was 850 nM.

`CC(C)Oc1ccc(S(N)(=O)=O)cc1Nc1nc(-c2ccc3[nH]cnc3c2)cs1` [Example 21, 3-[4-(1H-Benzoimidazol-5-yl)-thiazol-2-ylamino]-4-isopropoxy-benzenesulfonamide•TFA]: the equilibrium dissociation constant (Kd) in assay [1] amounted to 91 nM; in assay [4], 1400 nM. Besides, half-maximal inhibition in assay [3] (IC50) required 320 nM.

On to `Cn1cnc2cc(-c3csc(Nc4cc(S(N)(=O)=O)ccc4OC(F)(F)F)n3)ccc21` [Example 12, 3-[4-(1-Methyl-1H-benzoimidazol-5-yl)-thiazol-2-ylamino]-4-trifluoromethoxy-benzenesulfonamide], for which the dissociation constant (Kd) in assay [1] was determined as 750 nM; in assay [4], 5300 nM. For the same compound, it took 860 nM to reach half-maximal inhibition in assay [3] (IC50).

In the case of `Cc1nc2ccc(-c3csc(Nc4cc(S(N)(=O)=O)ccc4OC(C)C)n3)cc2n1C` [Example 22, 3-[4-(2,3-Dimethyl-3H-benzoimidazol-5-yl)-thiazol-2-ylamino]-4-isopropoxy-benzenesulfonamide•TFA], the dissociation constant Kd was 170 nM in assay [1] and 480 nM in assay [4]. The compound further showed an IC50 in assay [3] of 240 nM.

For the compound `CC(C)Oc1ccc(C(N)=O)cc1Nc1nc(-c2ccc3c(cnn3C)c2)cs1` [Example 14, 4-Isopropoxy-3-[4-(1-methyl-1H-indazol-5-yl)-thiazol-2-ylamino]-benzamide•TFA], the values for the Kd in assay [1] and in assay [4] were 67 nM and 670 nM, respectively. The compound also yielded an IC50 in assay [3] of 350 nM.

Turning to `CCCn1cnc2cc(-c3csc(Nc4cc(S(N)(=O)=O)ccc4OC(C)C)n3)ccc21` [Example 26], the Kd in assay [1] was 210 nM; in assay [4], 1000 nM. This compound also came in with an IC50 in assay [3] of 470 nM.

What is called Kd is the constant that tells how readily two partners part at equilibrium. Higher therefore signals lower affinity. As usually defined, the IC50 is the concentration that gives 50% inhibition. The low end stands for inhibition by little substance, the high end for a need for much substance.
